Test systems include CAKI-1 renal; COLO 205 colon; DU-145 prostate; IGROV1 ovarian; MDA-MB-435; MOLT-4 leukemia; NCI/ADR-RES ovarian; SK-MEL-28 melanoma; SNB-75 CNS; SR leukemia.
What all share (assay): NCI-60 cell line screen, 48 h

Several values for one entry are separate records, joined by “and”; a condition that tells them apart may be missing. Equal values may be shown once.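 Each compound was tested at five concentrations against cells in 96-well plates for 48 hours. GI50 is the concentration that inhibits growth by half. At the TGI there is no net growth.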 Where only a bound is given, the exact number is not on record here.

As to `CCN1CCN(Cc2ccc3cc(C(=O)Nc4cc(NC(=O)c5ccc6c(c5)OCCO6)ccc4F)ccc3n2)CC1`, the GI50 with CAKI-1 renal is 18 nM; in the test on COLO 205 colon, 55.3 nM; in the test with DU-145 prostate, 0.0371 µM; with IGROV1 ovarian, 0.0297 µM; with MDA-MB-435, 60.8 nM; in the test with MOLT-4 leukemia it was 50.4 nM. Also, the GI50 was 369 nM with NCI/ADR-RES ovarian, 118 nM with SK-MEL-28 melanoma, 17.8 nM in the test on SNB-75 CNS and 44.3 nM in the test on SR leukemia. Further, the TGI is 0.103 µM in the test on CAKI-1 renal; 1.51 µM in the test on COLO 205 colon; 1.18 µM in the test with DU-145 prostate; 0.848 µM with IGROV1 ovarian; 3.42 µM with MDA-MB-435; 2.23 µM in the test on MOLT-4 leukemia. Besides, the TGI was 9.55 µM in the test on NCI/ADR-RES ovarian, 6.75 µM in the test with SK-MEL-28 melanoma, 0.456 µM with SNB-75 CNS and 1.48 µM in the test on SR leukemia.
With `COc1ccc2c(c1)N(CCO)C1=C(C(=O)OC1)C2c1cccc(Br)c1` (configuration not stated), the GI50 in the test on CAKI-1 renal is 39.5 nM; in the test with COLO 205 colon, 103 nM; in the test with DU-145 prostate it was 0.156 µM; with IGROV1 ovarian it was 0.088 µM; in the test on MDA-MB-435, 22.5 nM; with MOLT-4 leukemia, 458 nM. Also, the GI50 with NCI/ADR-RES ovarian was 39.7 nM; in the test with SNB-75 CNS, 64.7 nM; in the test with SR leukemia, 82.6 nM. Moreover, the TGI in the test on CAKI-1 renal is 35.6 µM; in the test on COLO 205 colon, 0.464 µM; in the test on DU-145 prostate it was 1.15 µM; in the test with IGROV1 ovarian, over 100 µM; with MDA-MB-435, 0.0623 µM; in the test on MOLT-4 leukemia, over 100 µM. Also, the TGI with NCI/ADR-RES ovarian was 0.223 µM; in the test with SNB-75 CNS, over 100 µM; in the test with SR leukemia, 55.7 µM.
For `COC(=O)C12OCC34C(CC5C(C)=CC(=O)C(O)C5(C)C3C(O)C1O)OC(=O)C(OC(=O)CC(C)C)C24` (configuration not stated), the GI50 was 120 nM and 87.6 nM in the test on CAKI-1 renal; 425 nM and 50 nM in the test with COLO 205 colon; < 0.0288 µM and 0.05 µM with IGROV1 ovarian; 288 nM with NCI/ADR-RES ovarian; < 35.2 nM and 50 nM in the test with SK-MEL-28 melanoma; 82.5 nM and 50 nM in the test on SNB-75 CNS. Further, the figures for the TGI in the test with DU-145 prostate, in the test on MDA-MB-435 and with SR leukemia were 0.00425 µM, 0.00697 µM and 0.0506 µM, respectively.
Consider `Clc1cccc(Cc2cn3cc(-c4ccccc4)nc3s2)c1`, for which the GI50 was 2680 nM with CAKI-1 renal; 17.7 µM with DU-145 prostate; 5.36 µM with IGROV1 ovarian; 3480 nM in the test with MDA-MB-435; over 100000 nM with MOLT-4 leukemia; 3490 nM with NCI/ADR-RES ovarian. The GI50 in the test with SK-MEL-28 melanoma is 61500 nM; in the test on SNB-75 CNS, 21200 nM; in the test with SR leukemia, 36500 nM. For the same compound, the TGI in the test with CAKI-1 renal, with DU-145 prostate, in the test with IGROV1 ovarian, with MDA-MB-435, in the test on MOLT-4 leukemia and with NCI/ADR-RES ovarian was over 100 µM throughout. In addition, the values for the TGI in the test with SK-MEL-28 melanoma, in the test with SNB-75 CNS and in the test with SR leukemia were over 100 µM, 76.7 µM and over 100 µM, respectively.
For `Cn1cc(-c2nc(-c3cn(C)c4ncccc34)cs2)c2cc(F)ccc21`, the GI50 is 776 nM in the test on CAKI-1 renal; 1440 nM with COLO 205 colon; 2.79 µM in the test on DU-145 prostate; 237 nM with MDA-MB-435; 3170 nM in the test on MOLT-4 leukemia; 511 nM with NCI/ADR-RES ovarian. For the same compound, the results for the GI50 with SK-MEL-28 melanoma, with SNB-75 CNS and in the test on SR leukemia were 2420 nM, 1270 nM and 565 nM, respectively. For the same compound, the TGI in the test on CAKI-1 renal was 11.9 µM; in the test on COLO 205 colon, 7.49 µM; in the test on DU-145 prostate it was 21.9 µM; with MDA-MB-435, 0.713 µM; with MOLT-4 leukemia, over 100 µM; in the test on NCI/ADR-RES ovarian it was 8.61 µM. Also, the TGI was over 100 µM with SK-MEL-28 melanoma, 4.27 µM in the test on SNB-75 CNS and 17.8 µM in the test on SR leukemia.
In the case of `CCNCCNc1cc(C2CCCC2)c(C#N)c2nc3ccccc3n12`, the GI50 with CAKI-1 renal was 3590 nM; in the test with COLO 205 colon, 2000 nM; in the test on DU-145 prostate, 3.71 µM; in the test on IGROV1 ovarian it was 3.5 µM; in the test with MDA-MB-435, 2620 nM; in the test with NCI/ADR-RES ovarian, 4550 nM. The values for the GI50 in the test on SK-MEL-28 melanoma, in the test with SNB-75 CNS and in the test on SR leukemia were 1840 nM, 1630 nM and 1660 nM, respectively. In addition, the TGI in the test with CAKI-1 renal was 14.5 µM; in the test on COLO 205 colon it was 4.71 µM; with DU-145 prostate, 13.8 µM; with IGROV1 ovarian, 16 µM; in the test on MDA-MB-435, 7.62 µM; with NCI/ADR-RES ovarian it was 19 µM. Besides, the TGI in the test with SK-MEL-28 melanoma was found to be 3.68 µM; in the test on SNB-75 CNS, 4.02 µM; in the test on SR leukemia, 6.13 µM.
Take `O=C(CN/C=C\C(=O)c1cc(Cl)ccc1Cl)c1ccccc1`: the GI50 in the test on CAKI-1 renal is 26600 nM; with COLO 205 colon, 34900 nM; in the test with DU-145 prostate, 33.4 µM; with IGROV1 ovarian it was 29.1 µM; in the test with MDA-MB-435 it was 19200 nM; with MOLT-4 leukemia, over 100000 nM. Also, the GI50 was 19700 nM in the test with NCI/ADR-RES ovarian, 41900 nM in the test on SK-MEL-28 melanoma and over 100000 nM in the test on SR leukemia. For the same compound, the TGI was 66.2 µM in the test with CAKI-1 renal; over 100 µM with COLO 205 colon; over 100 µM with DU-145 prostate; over 100 µM in the test on IGROV1 ovarian; 45 µM in the test with MDA-MB-435; over 100 µM with MOLT-4 leukemia. Moreover, the values for the TGI with NCI/ADR-RES ovarian, in the test with SK-MEL-28 melanoma and in the test on SR leukemia were 41.2 µM, over 100 µM and over 100 µM, respectively.
As for `COc1ccc(OC)c2c3c(ncc12)-c1cc2c(cc1C3)OCO2`, the GI50 was over 100000 nM in the test on CAKI-1 renal; over 100000 nM with COLO 205 colon; 48.4 µM with DU-145 prostate; 4.24 µM in the test on IGROV1 ovarian; over 100000 nM with MDA-MB-435; over 100000 nM in the test with NCI/ADR-RES ovarian. In addition, the GI50 was over 100000 nM with SK-MEL-28 melanoma, over 100000 nM with SNB-75 CNS and 4220 nM in the test with SR leukemia. In addition, the TGI in the test with CAKI-1 renal, in the test on COLO 205 colon, in the test with DU-145 prostate, in the test on IGROV1 ovarian, with MDA-MB-435 and in the test on NCI/ADR-RES ovarian was over 100 µM in each case. Also, the TGI with SK-MEL-28 melanoma, in the test with SNB-75 CNS and with SR leukemia was over 100 µM each time.

(Values after PubChem BioAssay (NCI).)
